Measurements taken from ChEMBL document CHEMBL4811238, “Identification of N-phenyl-2-(phenylsulfonyl)acetamides/propanamides as new SLC-0111 analogues: Synthesis and evaluation of the carbonic anhydrase inhibitory activities” (Eur J Med Chem, 2021).
Activity calls are given as the source filed them. The calls are words filed in the database; no cut-off is given here.

Assays:
Carbonic anhydrase 1 = Carbonic anhydrase 1 (Homo sapiens, UniProt P00915); experiment: Inhibition of recombinant human CA1 pre-incubated for 15 mins measured by phenol red dye based stopped flow CO2 hydration assay
Carbonic anhydrase 9 = Carbonic anhydrase 9 (Homo sapiens, UniProt Q16790)
Description: Inhibition of recombinant human CA9 pre-incubated for 15 mins measured by phenol red dye based stopped flow CO2 hydration assay

Carbonic anhydrase 12 = Carbonic anhydrase 12 (Homo sapiens, UniProt O43570); experiment: Inhibition of recombinant human CA12 pre-incubated for 15 mins measured by phenol red dye based stopped flow CO2 hydration assay
Carbonic anhydrase 2 = Carbonic anhydrase 2 (Homo sapiens, UniProt P00918)
Description: Inhibition of recombinant human CA2 pre-incubated for 15 mins measured by phenol red dye based stopped flow CO2 hydration assay

HCT-116 [1] = experiment: Antiproliferative activity against human HCT-116 cells after 48 hrs under hypoxic condition by MTT assay; assay type: functional, cell-based; details: HCT-116, 48 h
MCF7 = experiment: Antiproliferative activity against human MCF7 cells after 48 hrs under hypoxic condition by MTT assay; assay type: functional, cell-based; details: MCF7, 48 h
HCT-116 [2] = experiment: Induction of cell cycle arrest in human HCT116 cells assessed as cell accumulation at sub-G1 phase at IC50 concentration after 24 hrs by propidium iodide staining based flow cytometry analysis; assay type: functional
HCT-116 [3] = experiment: Induction of cell cycle arrest in human HCT116 cells assessed as cell accumulation at S phase at IC50 concentration after 24 hrs by propidium iodide staining based flow cytometry analysis; assay type: functional
HCT-116 [4] = experiment: Induction of apoptosis in human HCT116 cells assessed as early apoptotic cells after 24 hrs by Annexin-V-FITC/PI-staining based flow cytometry (reference value: 0.59%); assay type: functional
HCT-116 [5] = experiment: Induction of apoptosis in human HCT116 cells assessed as late apoptotic cells after 24 hrs by Annexin-V-FITC/PI-staining based flow cytometry (reference value: 0.22%); assay type: functional
HCT-116 [6] = experiment: Induction of apoptosis in human HCT116 cells assessed as necrotic cells after 24 hrs by Annexin-V-FITC/PI-staining based flow cytometry (reference value: 1.01%); assay type: functional

Carbonic anhydrase 1, sequence (P00915 whole entry): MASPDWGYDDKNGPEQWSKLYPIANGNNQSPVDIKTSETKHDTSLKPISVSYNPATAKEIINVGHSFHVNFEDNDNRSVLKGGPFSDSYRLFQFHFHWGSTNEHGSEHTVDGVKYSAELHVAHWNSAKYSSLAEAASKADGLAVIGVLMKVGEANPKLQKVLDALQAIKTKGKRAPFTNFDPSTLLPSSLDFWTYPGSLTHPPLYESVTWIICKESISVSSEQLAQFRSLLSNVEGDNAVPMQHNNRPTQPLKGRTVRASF
Carbonic anhydrase 12, sequence (O43570 whole entry): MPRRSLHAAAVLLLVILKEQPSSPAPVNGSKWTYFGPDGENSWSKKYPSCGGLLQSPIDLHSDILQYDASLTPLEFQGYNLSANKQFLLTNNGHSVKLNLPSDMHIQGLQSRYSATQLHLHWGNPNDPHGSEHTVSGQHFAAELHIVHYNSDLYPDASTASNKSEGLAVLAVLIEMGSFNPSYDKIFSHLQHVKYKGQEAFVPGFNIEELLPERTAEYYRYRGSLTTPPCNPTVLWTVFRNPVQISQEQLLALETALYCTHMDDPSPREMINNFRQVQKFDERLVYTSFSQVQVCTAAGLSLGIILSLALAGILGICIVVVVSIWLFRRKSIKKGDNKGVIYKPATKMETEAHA

SMILES	Ki (Carbonic anhydrase 1) [µM]	Ki (Carbonic anhydrase 9) [µM]	further results
Cc1ccc(S(=O)(=O)CC(=O)Nc2ccc([N+](=O)[O-])cc2)cc1	> 100	> 100	Ki (Carbonic anhydrase 12): > 100 µM; Ki (Carbonic anhydrase 2): > 100 µM
CCOC(=O)c1ccc(NC(=O)CS(=O)(=O)c2ccccc2)cc1	> 100	17.2	Ki (Carbonic anhydrase 2): > 100 µM
CCOC(=O)c1ccc(NC(=O)CS(=O)(=O)c2ccc(C)cc2)cc1	> 100	29.5	Ki (Carbonic anhydrase 12): > 100 µM
CC(C(=O)Nc1ccc(S(N)(=O)=O)cc1)S(=O)(=O)c1ccccc1 (centres undefined)		0.0065	
Cc1ccc(S(=O)(=O)CC(=O)Nc2ccc(C(=O)O)cc2)cc1		0.72	IC50 (HCT-116 [1]): 2.23 µM; IC50 (MCF7): 3.41 µM
Cc1ccc(S(=O)(=O)CC(=O)Nc2ccc(S(N)(=O)=O)cc2)cc1		0.0159	
NS(=O)(=O)c1ccc(NC(=O)CCS(=O)(=O)c2ccccc2)cc1		0.0461	
Cc1ccc(S(=O)(=O)C(C)C(=O)Nc2ccc(S(N)(=O)=O)cc2)cc1 (centres undefined)		0.0298	
O=C(CS(=O)(=O)c1ccccc1)Nc1ccc(C(=O)O)cc1	> 100	0.93	IC50 (HCT-116 [1]): 11.6 µM; IC50 (MCF7): 5.29 µM
CC(=O)c1ccc(NC(=O)CS(=O)(=O)c2ccc(C)cc2)cc1	> 100	> 100	Ki (Carbonic anhydrase 12): > 100 µM; Ki (Carbonic anhydrase 2): > 100 µM
Cc1ccc(S(=O)(=O)CCC(=O)Nc2ccc(S(N)(=O)=O)cc2)cc1		0.0043	IC50 (HCT-116 [1]): 0.57 µM; IC50 (MCF7): 0.67 µM; Activity (HCT-116 [2]): Active; Activity (HCT-116 [3]): Active; Activity (HCT-116 [4]): 0.91%; Activity (HCT-116 [5]): 21.45%; Activity (HCT-116 [6]): 9.63%
NS(=O)(=O)c1ccc(NC(=O)CS(=O)(=O)c2ccccc2)cc1		0.0227	
